# Experimental data from article PMC3652196, “Pharmacometrics of 3-Methoxypterostilbene: A Component of Traditional Chinese Medicinal Plants” (Evidence-based Complementary and Alternative Medicine : eCAM, 2013).
# Experiments:
# [1] = system: α-glucosidase from Saccharomyces cerevisiae; assay: α-Glucosidase inhibition colorimetric assay (PNPG); type: biochemical; conditions: 0 to 200 μg/mL, n = 6
# [2] = humans; cited from earlier work
smiles,measurement,setting,value
Oc1ccc(/C=C/c2cc(O)cc(O)c2)cc1 [resveratrol],α-Glucosidase inhibition (in words),[1],clear positive concentration-dependent inhibition relationship
same,bioavailability,[2],< 1%
